Among the data in ChEMBL document CHEMBL1150098, “Makaluvamines H-M and damirone C from the pohnpeian sponge Zyzzya fuliginosa” (J Nat Prod, 1995) are Activity values, retold here.

Calls of active or inactive are those of the source. No cut-off for these calls is given here.

Assay [1] concerns the target DNA topoisomerase 2-alpha (Homo sapiens) (UniProt P11388). The experiment in a line: Inhibition of DNA topoisomerase 2.
Assay [2] has as its system HCT-116. Kind of assay: Cytotoxicity against human HCT116 cells. In kind it is functional, cell-based.

Chain of DNA topoisomerase 2-alpha (Homo sapiens) (P11388 whole entry): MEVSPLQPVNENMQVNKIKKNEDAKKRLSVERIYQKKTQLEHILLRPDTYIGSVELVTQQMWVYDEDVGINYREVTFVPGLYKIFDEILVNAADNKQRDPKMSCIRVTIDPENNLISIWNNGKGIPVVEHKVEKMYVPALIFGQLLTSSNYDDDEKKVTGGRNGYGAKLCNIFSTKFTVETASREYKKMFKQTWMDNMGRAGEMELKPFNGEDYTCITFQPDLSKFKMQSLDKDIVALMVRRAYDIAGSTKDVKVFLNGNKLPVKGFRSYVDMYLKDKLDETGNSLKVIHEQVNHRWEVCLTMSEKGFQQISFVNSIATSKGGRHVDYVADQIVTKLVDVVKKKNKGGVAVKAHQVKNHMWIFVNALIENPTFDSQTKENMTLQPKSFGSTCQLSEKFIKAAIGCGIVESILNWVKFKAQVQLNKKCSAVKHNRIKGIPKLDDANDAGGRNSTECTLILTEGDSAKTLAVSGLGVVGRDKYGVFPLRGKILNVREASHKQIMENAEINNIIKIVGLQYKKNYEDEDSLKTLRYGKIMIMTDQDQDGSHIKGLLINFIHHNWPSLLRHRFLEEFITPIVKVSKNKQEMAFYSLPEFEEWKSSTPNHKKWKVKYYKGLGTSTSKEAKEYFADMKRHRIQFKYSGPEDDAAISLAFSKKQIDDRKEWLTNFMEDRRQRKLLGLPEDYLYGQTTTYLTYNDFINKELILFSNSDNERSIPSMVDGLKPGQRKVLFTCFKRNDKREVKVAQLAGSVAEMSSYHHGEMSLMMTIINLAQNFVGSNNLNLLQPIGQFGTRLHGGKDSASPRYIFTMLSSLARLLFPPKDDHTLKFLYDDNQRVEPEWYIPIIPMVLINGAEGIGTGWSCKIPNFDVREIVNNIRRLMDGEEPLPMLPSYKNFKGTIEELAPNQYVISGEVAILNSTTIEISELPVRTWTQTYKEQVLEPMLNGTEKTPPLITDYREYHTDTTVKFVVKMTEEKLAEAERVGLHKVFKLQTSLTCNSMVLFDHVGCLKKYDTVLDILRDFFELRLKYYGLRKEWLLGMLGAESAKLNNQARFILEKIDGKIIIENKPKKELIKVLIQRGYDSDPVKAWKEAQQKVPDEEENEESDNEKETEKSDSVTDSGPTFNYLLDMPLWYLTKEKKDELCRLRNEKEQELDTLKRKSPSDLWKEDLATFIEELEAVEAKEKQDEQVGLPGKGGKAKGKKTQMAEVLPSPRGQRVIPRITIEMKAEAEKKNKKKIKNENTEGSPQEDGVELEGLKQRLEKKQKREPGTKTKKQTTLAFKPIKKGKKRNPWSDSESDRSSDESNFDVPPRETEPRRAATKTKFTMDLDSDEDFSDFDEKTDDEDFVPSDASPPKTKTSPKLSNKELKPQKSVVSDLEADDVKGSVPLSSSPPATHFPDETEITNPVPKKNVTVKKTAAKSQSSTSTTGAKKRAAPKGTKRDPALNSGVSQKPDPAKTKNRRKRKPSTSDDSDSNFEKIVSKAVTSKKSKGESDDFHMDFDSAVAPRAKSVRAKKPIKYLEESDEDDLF

For the molecule `Cn1cc2c3c1C(=O)C(NCCc1ccc(O)cc1)=CC3=NCC2`, the result in assay [1] was inactive. The result in assay [2] was Active.

On to `C[N+]1=C2C=C(N/C=C/c3ccc(O)cc3)C(=O)c3[nH]cc(c32)CC1`, for which, in assay [1], the outcome was inactive. The outcome in assay [2] was Active.

Regarding `Cn1cc2c3c1C(=O)C(N)=CC3=[N+](C)CC2`, the result in assay [1] was inactive. Moreover, the result in assay [2] was Active.

`Cn1cc2c3c1C(=O)C(N)=CC3=NCC2`: the outcome in assay [1] and in assay [2] was Active.

As for `NC1=CC2=NCCc3c[nH]c(c32)C1=O`, the outcome in assay [2] was Active.

As for `Cn1cc2c3c1C(=O)C(N/C=C/c1ccc(O)cc1)=CC3=[N+](C)CC2`, in assay [1], the result was inactive. For the same molecule, in assay [2], the outcome was Active.

As to `Cn1cc2c3c1C(=O)C(N/C=C/c1ccc(O)cc1)=CC3=NCC2`, the result in assay [1] and in assay [2] was Active.

With `C[N+]1=C2C=C(N)C(=O)c3[nH]cc(c32)CC1`, the result in assay [1] and in assay [2] was Active.

For `C[N+]1=C2C=C(NCCc3ccc(O)cc3)C(=O)c3[nH]cc(c32)CC1`, the outcome in assay [1] was inactive. For the same molecule, the outcome in assay [2] was Active.

As to `O=C1C(N/C=C/c2ccc(O)cc2)=CC2=NCCc3c[nH]c1c32`, in assay [1], the outcome was inactive. Moreover, the result in assay [2] was Active.

For the molecule `O=C1C(NC2Cc3cc(Br)c(O)cc3S2)=CC2=NCCc3c[nH]c1c32` (stereo not drawn), the outcome in assay [1] and in assay [2] was Active.

In the case of `O=C1C(NCCc2ccc(O)cc2)=CC2=NCCc3c[nH]c1c32`, the result in assay [1] was inactive. For the same molecule, the outcome in assay [2] was Active.
